Measured values from patent US5494804A, “Differential determination process of α-amylase isoenzyme activities” (Kikkoman Corporation, priority 1993, dated 1996).
One block for each compound: values may come before it.

Experiments:
human S-type α-amylase [1] = target: T1, human S-type α-amylase (Homo sapiens, UniProt P0DUB6); test: Inhibition of human S-type α-amylase by an inhibitor (variable absorbance at 400 nm, chromogenic substrate, coupled enzymes); type: biochemical
T1 construct: purchased International Reagents Corp., Japan CARIBZYME AMY
T1 sequence (P0DUB6 16-511): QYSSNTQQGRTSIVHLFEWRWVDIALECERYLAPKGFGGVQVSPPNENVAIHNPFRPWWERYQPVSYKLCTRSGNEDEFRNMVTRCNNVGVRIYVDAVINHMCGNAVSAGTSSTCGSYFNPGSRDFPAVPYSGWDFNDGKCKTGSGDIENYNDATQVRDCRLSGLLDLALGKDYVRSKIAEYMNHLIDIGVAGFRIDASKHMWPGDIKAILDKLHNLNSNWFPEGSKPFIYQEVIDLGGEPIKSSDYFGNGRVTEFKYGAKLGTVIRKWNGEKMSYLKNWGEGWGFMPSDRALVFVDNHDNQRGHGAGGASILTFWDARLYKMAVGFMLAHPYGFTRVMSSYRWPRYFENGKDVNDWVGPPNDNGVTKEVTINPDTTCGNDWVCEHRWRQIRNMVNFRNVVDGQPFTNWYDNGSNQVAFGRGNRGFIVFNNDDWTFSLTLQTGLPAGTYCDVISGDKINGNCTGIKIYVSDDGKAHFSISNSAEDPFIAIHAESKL
Protocol: (§1) (a) Preparation of a mixed solution of the substrate (N3G5-CNP) and the inhibitor DOG3
(§2) N3G5-CNP and DOG3 obtained in Informative Example 2 were dissolved in a 50 mM phosphate buffer (pH 7.0) containing 40 mM NaCl and 2 mM MgCl2 so that the N3G5-CNP has a concentration of 3.25 mM (final concentration of 2.0 mM) and DOG3 has seven concentrations of 0.05, 0.11, 0.54, 1.09, 2.16, 3.25, 5.41 mM (final concentrations of 0.03, 0.07, 0.33, 0.67, 1.33, 2.00 and 3.33 mM, respectively).
(§3) The commercially available human P-type α-amylase and human S-type α-amylase were dissolved in distilled water so that they have a concentration of about 150 IU/liter.
(§4) It was prepared in the same manner as described in (b) in the section (1).
(§5) After 250 μl of the α-amylase solution was admixed with 1.0 ml of the coupled enzyme solution and warmed to 37° C. for 1 minute, 2.0 ml of each of the mixtures (having 7 concentration) of the substrate (N3G5-CNP) and the inhibitor DOG3 was added, stirred and warmed to 37° C. for 2.5 minutes, and the variable absorbance in each sample at 400 nm was measured for 2 minutes.
(§6) The activities of human P-type α-amylase and human S-type α-amylase containing 0 mM of DOG3 (without DOG3) were regarded as 100% and the relative activities of human P-type α-amylase and human S-type α-amylase in different concentrations of DOG3 were obtained from each determined value as mentioned above. In this connection, a open circle means P-type α-amylase and a closed circle means S-type α-amylase. […]
(§7) On the other hand, procedures were carried out in the same manner as described above except that 1.0 ml of the coupled enzyme solution alone was used on behalf of the mixed solution in (c) to obtain the value of T with this method.
(§8) The values of kp, ks, a and b in the wheat-germ inhibitor method were 1.1×10^-3, 1.1×10^-3, 0,262 and 0.726 as a result of the measurement. These values as well as those of T and W obtained in this method were substituted for the equations (3) and (4) to obtain the values of P and S (IU/liter). […]

human P-type α-amylase [2] = target: T2, human P-type α-amylase (Homo sapiens, UniProt P04746); test: Inhibition of human P-type α-amylase by an inhibitor (variable absorbance at 400 nm, chromogenic substrate, coupled enzymes); type: biochemical
T2 construct: purchased International Reagents Corp., Japan CARIBZYME AMY
T2 sequence (P04746 16-511): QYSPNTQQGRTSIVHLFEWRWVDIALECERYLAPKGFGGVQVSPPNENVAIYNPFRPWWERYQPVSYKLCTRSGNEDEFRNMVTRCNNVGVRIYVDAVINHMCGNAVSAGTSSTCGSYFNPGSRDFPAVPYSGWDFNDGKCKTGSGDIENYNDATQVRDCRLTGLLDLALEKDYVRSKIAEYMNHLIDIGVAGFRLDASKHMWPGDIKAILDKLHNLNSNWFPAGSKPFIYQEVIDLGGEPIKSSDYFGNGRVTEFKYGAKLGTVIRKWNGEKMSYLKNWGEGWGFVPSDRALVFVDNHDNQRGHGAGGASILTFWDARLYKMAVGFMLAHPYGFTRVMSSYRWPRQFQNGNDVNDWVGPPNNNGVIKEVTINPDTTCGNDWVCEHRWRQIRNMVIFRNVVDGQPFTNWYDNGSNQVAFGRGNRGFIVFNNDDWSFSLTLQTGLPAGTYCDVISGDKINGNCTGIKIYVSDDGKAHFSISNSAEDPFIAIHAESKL
Protocol: as §1, §2, §3, §4, §5, §6, §7, §8

human S-type α-amylase [3] = target: T1, human S-type α-amylase; test: Km and reaction rate constant ks of the substrate for measuring α-amylase activity, S-type; type: biochemical
Protocol: (§9) In a 50 mM phosphate buffer (pH 7.0) containing 40 mM NaCl and 2 mM MgCl2 was dissolved N3G5-CNP obtained in Informative Example 1 to prepare substrate solutions for measuring α-amylase activity in a concentration of 0.16, 0.32, 0.48, 0.64, 0.80 and 0.96 mM.
(§10) A commercially available glucoamylase derived from Rhizopus sp. and β-glucosidase derived from almond were mixed and dissolved in a 50 mM phosphate buffer (pH 7.0) containing 40 mM NaCl and 2 mM MgCl2 to the concentration of the glucoamylase and β-glucosidase being 163 units/ml and 16.3 units/ml, respectively. In this connection, these commercially available glucoamylase and β-glucosidase used were manufactured by Toyobo Co., Ltd.
(§11) Each of commercially available human P-type α-amylase and human S-type α-amylase was dissolved in distilled water to ensure that the concentration of each amylase was about 150 IU/liter.
The commercially available human α-amylases used were CARIBZYME AMY manufactured by International Reagents Corp., Japan.
The molecular extinction coefficient (ε) of 2-chloro-4-nitrophenol is defined 16,100 and for α-amylase activity the amount of enzyme which decomposes 1 μmol of G5-CNP at 37° C. for a minute is defined as 1 International Unit (IU) (and so forth).
(§12) As for the human P-type α-amylase solution and human S-type α-amylase solution, 1.0 ml of a coupled enzyme solution was added to and stirred with 250 μl of the α-amylase solution, warmed to 37° C. for 1 minute, and 2.0 ml of each concentration of the N3G5-CNP solution was added and stirred, warmed to 37° C. for 2.5 minutes to measure the variable absorbances at 400 nm for 2 minutes. […]
For six solutions of each of the human P-type α-amylase and the human S-type α-amylase, 1.0 ml of the coupled enzyme solution was added to and stirred with 250 μl of the α-amylase solution and warmed to 37° C. for 1 minute, respectively. 2.0 ml of N3G5-CNP solution was added and stirred, and the mixture was warmed to 37° C. for 2.5 minutes to measure the variable absorbances at 400 nm for 2 minutes. […]

α-amylase = test: Km value of G5-CNP (isoenzyme not stated); type: biochemical, human; settings: α-glucosidase instead of glucoamylase as coupled enzyme
Protocol: As for the human P-type α-amylase solution and human S-type α-amylase solution, 1.0 ml of a coupled enzyme solution was added to and stirred with 250 μl of the α-amylase solution, warmed to 37° C. for 1 minute, and 2.0 ml of each concentration of the N3G5-CNP solution was added and stirred, warmed to 37° C. for 2.5 minutes to measure the variable absorbances at 400 nm for 2 minutes. At the same time, a blank test was carried out with 250 μl of distilled water instead of the α-amylase solution. The measurements thus obtained were plotted by the Lineweaver-Burk method to calculate the Km value by the method of least squares.
The Km value and the reaction rate constants (kp and ks) of G5-CNP and the inhibition constants a and b of DOG3 were measured in the same manner as in Example 1 except that a commercially available G5-CNP [manufactured by Daiichi Pure Chemicals Co., Ltd.] on behalf of N3G5-CNP as the substrate for measuring α-amylase was used and 406 units/liter of α-glucosidase [manufactured by Toyobo Co., Ltd.] was used on behalf of glucoamylase as a coupled enzyme.

human P-type α-amylase [4] = target: T2, human P-type α-amylase; test: Km and reaction rate constant kp of the substrate for measuring α-amylase activity, P-type; type: biochemical
Protocol: as §9, §10, §11
The commercially available human α-amylases used were CARIBZYME AMY manufactured by International Reagents Corp., Japan. […]
as §12

[5] = α-glucosidase instead of glucoamylase as coupled enzyme
[6] = substrate final concentration 2.0 mM, 37° C., inclination of absorbance versus activity line, glucoamylase and β-glucosidase

activity at 330 µM (human S-type α-amylase [1]; DOG3 0.33 mM final, substrate N3G5-CNP 2.0 mM final, 37° C., pH 7.0, read-out: relative activity of human S-type α-amylase (without DOG3 = 100%)): 67.9%
inhibition at 500 µM (human S-type α-amylase [1]; DOG3 0.50 mM, substrate G5-CNP, α-glucosidase and β-glucosidase as coupled enzymes, read-out: inhibition constant b (to S-type α-amylase)): 14.1%
inhibition at 330 µM (human S-type α-amylase [1]; pH 7, DOG3 0.33 mM, substrate N3G5-CNP 2.0 mM, read-out: inhibition constant b (to S-type α-amylase) = 1 - relative activity): 32.1%
activity at 330 µM (human P-type α-amylase [2]; DOG3 0.33 mM final, substrate N3G5-CNP 2.0 mM final, 37° C., pH 7.0, read-out: relative activity of human P-type α-amylase (without DOG3 = 100%)): 13.1%
difference of the relative activities of P-type and S-type α-amylases (maximum) (human P-type α-amylase [2]; DOG3 0.33 mM, substrate N3G5-CNP, S-type minus P-type, as fraction): 0.548
inhibition at 500 µM (human P-type α-amylase [2]; DOG3 0.50 mM, substrate G5-CNP, α-glucosidase and β-glucosidase as coupled enzymes, read-out: inhibition constant a (to P-type α-amylase)): 61.7%
inhibition at 330 µM (human P-type α-amylase [2]; pH 7, DOG3 0.33 mM, substrate N3G5-CNP 2.0 mM, read-out: inhibition constant a (to P-type α-amylase) = 1 - relative activity): 86.9%
Structure (SMILES): C[C@H]1O[C@H](O[C@H]2[C@H](O)[C@@H](O)[C@@H](O[C@H]3[C@H](O)[C@@H](O)C(O)O[C@@H]3CO)O[C@@H]2CO)[C@H](O)[C@@H](O)[C@@H]1O (stereo partly drawn) [DOG3, O-6-deoxy-α-D-glucopyranosyl-(1→4)-O-α-D-glucopyranosyl-(1→4)-D-glucose]

Structure (SMILES): O=[N+]([O-])c1ccc(O[C@@H]2O[C@H](CO)[C@@H](O[C@H]3O[C@H](CO)[C@@H](O[C@H]4O[C@H](CO)[C@@H](O[C@H]5O[C@H](CO)[C@@H](O[C@H]6O[C@H](CO)[C@@H](O)[C@H](O)[C@H]6O)[C@H](O)[C@H]5O)[C@H](O)[C@H]4O)[C@H](O)[C@H]3O)[C@H](O)[C@H]2O)c(Cl)c1 [G5-CNP, 2-chloro-4-nitrophenyl β-D-maltopentaoside, reference compound]
reaction rate constant ks (human S-type α-amylase [3]; [5]): 1.2×10^-3
Km (α-amylase): 450 µM
reaction rate constant kp (human P-type α-amylase [4]; [5]): 1.2×10^-3

Km (human S-type α-amylase [3]; Lineweaver-Burk, 37° C., pH 7.0, glucoamylase and β-glucosidase as coupled enzymes): 270 µM
reaction rate constant ks (human S-type α-amylase [3]; [6]): 1.1×10^-3
reaction rate constant kp (human P-type α-amylase [4]; [6]): 1.1×10^-3
Structure (SMILES): [N-]=[N+]=NC[C@H]1O[C@H](O[C@H]2[C@H](O)[C@@H](O)[C@@H](O[C@H]3[C@H](O)[C@@H](O)[C@@H](O[C@H]4[C@H](O)[C@@H](O)[C@@H](O[C@H]5[C@H](O)[C@@H](O)[C@H](Oc6ccc([N+](=O)[O-])cc6Cl)O[C@@H]5CO)O[C@@H]4CO)O[C@@H]3CO)O[C@@H]2CO)[C@H](O)[C@@H](O)[C@@H]1O [N3G5-CNP, 2-chloro-4-nitro-phenyl 6^5-azido-6^5-deoxy-β-D-maltopentaoside]
